In patent US11718622B2, “Heterocyclic adenosine receptor antagonists” (Exelixis, Inc., priority 2020, dated 2023) one finds IC50 data, which are given here for 26 molecules.

A value given as a limit tells only on which side of the number the result lay.

In test [1] the target is Adenosine A2B (ADORA2B) receptor (Homo sapiens (Human), UniProt P29275). Description: ADORA2B Receptor Binding Assay. The settings on record: radioligand binding, membrane stock. The method, then: ADORA2B Receptor Binding Assay
Chain of Adenosine A2B (ADORA2B) receptor (P29275 whole entry): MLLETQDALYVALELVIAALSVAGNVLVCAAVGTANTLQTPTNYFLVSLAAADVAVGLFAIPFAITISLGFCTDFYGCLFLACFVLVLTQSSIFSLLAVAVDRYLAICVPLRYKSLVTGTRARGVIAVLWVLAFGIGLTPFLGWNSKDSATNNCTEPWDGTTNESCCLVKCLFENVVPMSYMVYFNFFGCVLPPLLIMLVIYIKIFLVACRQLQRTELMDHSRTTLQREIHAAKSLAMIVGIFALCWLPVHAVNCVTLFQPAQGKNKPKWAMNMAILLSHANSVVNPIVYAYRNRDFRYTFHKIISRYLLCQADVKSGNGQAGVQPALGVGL
100 μL of Adenosine A2B membrane stock was dispensed into individual wells of an assay plate. 1 μL of each compound (test compounds, high control compound, low control compound) was then transferred into individual wells, followed by 100 μL of radio-labeled ligand. Plates were then sealed, and incubated at room temperature for 1 hour. Unifilter-96 GF/C filter plates were pre-soaked with 50 μL of 0.5% BSA per well for at least 30 min at room temperature. When binding assays were completed, reaction mixtures were filtered through GF/C plates using a Perkin Elmer Filtermate Harvester, and then each plate was washed 4× with cold wash buffer. Filter plates were then dried for 1 hour at 50° C. After drying, the bottom of the filter plate wells was sealed using Perkin Elmer Unifilter-96 backing seal tape. 50 μL of Perkin Elmer Microscint 20 cocktail was then added, and the top of the filter plate was then sealed using Perkin Elmer TopSeal-A sealing film. ^3H trapped on the filter was counted using a Perkin Elmer MicroBeta2 Reader. Data analysis was performed using GraphPad Prism 5 software, and the “Inhibition[% Control]” was calculated using the following equation: % Inh=(1−Background subtracted Assay value/Background subtracted HC value)*100.

The target of test [2] is Adenosine A2a (ADORA2A) receptor (Homo sapiens (Human), UniProt P29274). The experiment in a line: ADORA2A Receptor Binding Assay. The settings on record: radioligand binding, membrane stock. Here is the method: ADORA1A and ADORA2A Receptor Binding Assay
Chain of Adenosine A2a (ADORA2A) receptor (P29274 whole entry): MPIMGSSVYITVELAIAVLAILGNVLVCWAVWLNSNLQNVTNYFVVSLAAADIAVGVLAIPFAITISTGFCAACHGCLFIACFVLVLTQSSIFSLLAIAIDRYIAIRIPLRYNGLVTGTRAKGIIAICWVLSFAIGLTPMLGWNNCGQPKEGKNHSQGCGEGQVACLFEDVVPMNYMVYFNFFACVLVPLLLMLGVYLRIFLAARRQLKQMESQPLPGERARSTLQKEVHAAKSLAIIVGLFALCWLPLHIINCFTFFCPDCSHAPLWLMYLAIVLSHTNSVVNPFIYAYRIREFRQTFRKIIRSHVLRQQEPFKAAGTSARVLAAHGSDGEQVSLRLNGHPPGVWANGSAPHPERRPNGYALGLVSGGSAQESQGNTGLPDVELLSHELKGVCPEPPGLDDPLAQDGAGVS
2 μL of each compound (test compounds, high control compound, low control compound) was transferred into individual wells of an assay plate. Also to each individual well, 98 μL of Adenosine A1a membrane stock (for ADORA1A Receptor Binding Assay) or Adenosine A2a membrane stock (for ADORA2A Receptor Binding Assay) was dispensed, followed by 100 μL of radio-labeled ligand. Plates were then sealed, and incubated at room temperature for 1 hour (for ADORA1A Receptor Binding Assay) or 2 hours (for ADORA2A Receptor Binding Assay). Unifilter-96 GF/C filter plates were pre-soaked with 50 μL of 0.3% PEI per well for at least 30 min at room temperature. When binding assays were completed, reaction mixtures were filtered through GF/C plates using a Perkin Elmer Filtermate Harvester, and then each plate was washed 4× with cold wash buffer. Filter plates were then dried for 1 hour at 50° C. After drying, the bottom of the filter plate wells was sealed using Perkin Elmer Unifilter-96 backing seal tape. 50 μL of Perkin Elmer Microscint 20 cocktail was then added, and the top of the filter plate was then sealed using Perkin Elmer TopSeal-A sealing film. ^3H trapped on the filter was counted using a Perkin Elmer MicroBeta2 Reader. Data analysis was performed using GraphPad Prism 5 software, and the “Inhibition [% Control]” was calculated using the following equation: % Inh=(1−Background subtracted Assay value/Background subtracted HC value)*100.

For `Cc1nc2cc(N)nc(-c3ccc(C)o3)n2n1` [Compound 1, 2-Methyl-5-(5-methylfuran-2-yl)-[1,2,4]triazolo[1,5-c]pyrimidin-7-amine], the IC50 (as a rule, the concentration needed to halve the response being measured) is 10 to 100 nM in test [1] and below 10 nM in test [2].

As for `Cc1nc2cc(NC(=O)C3CC3)nc(-c3ccc(C)o3)n2n1` [Compound 2, N-(2-methyl-5-(5-methylfuran-2-yl)-[1,2,4]triazolo[1,5-c]pyrimidin-7-yl)cyclopropanecarboxamide], the IC50 in test [1] and in test [2] was below 10 nM each time.

In the case of `COc1ccc(Cc2nc3cc(N)nc(-c4ccc(C)o4)n3n2)cc1` [Compound 3, 2-[(4-methoxyphenyl)methyl]-5-(5-methylfuran-2-yl)-[1,2,4]triazolo[1,5-c]pyrimidin-7-amine], the results for the IC50 in test [1] and in test [2] were 100 to 1000 nM and 10 to 100 nM, respectively.

For `COc1ccc(Cc2nc3cc(NC(=O)C4CC4)nc(-c4ccc(C)o4)n3n2)cc1` [Compound 4], the IC50 in test [1] and in test [2] was below 10 nM in each case.

Regarding `CCC(=O)Nc1cc2nc(C)nn2c(-c2ccc(C)o2)n1` [Compound 5, N-[2-methyl-5-(5-methylfuran-2-yl)-[1,2,4]triazolo[1,5-c]pyrimidin-7-yl]propanamide], the figures for the IC50 in test [1] and in test [2] were 10 to 100 nM and below 10 nM, respectively.

In the case of `Cc1nc2cc(NC(=O)C(C)(C)C)nc(-c3ccc(C)o3)n2n1` [Compound 6, 2,2-dimethyl-N-[2-methyl-5-(5-methylfuran-2-yl)-[1,2,4]triazolo[1,5-c]pyrimidin-7-yl]propanamide], the IC50 was above 1000 nM in test [1] and below 10 nM in test [2].

For the molecule `CCc1nc2cc(N)nc(-c3ccc(C)o3)n2n1` [Compound 7, 2-ethyl-5-(5-methylfuran-2-yl)-[1,2,4]triazolo[1,5-c]pyrimidin-7-amine], the figures for the IC50 in test [1] and in test [2] were 100 to 1000 nM and below 10 nM, respectively.

Regarding `CCc1nc2cc(NC(=O)C3CC3)nc(-c3ccc(C)o3)n2n1` [Compound 8, N-[2-ethyl-5-(5-methylfuran-2-yl)-[1,2,4]triazolo[1,5-c]pyrimidin-7-yl]cyclopropanecarboxamide], the IC50 in test [1] was 10 to 100 nM; in test [2], below 10 nM.

Consider `Cc1nc2cc(NC(=O)[C@@H]3CCCN3)nc(-c3ccc(C)o3)n2n1` [Compound 9, (2S)-N-[2-methyl-5-(5-methylfuran-2-yl)-[1,2,4]triazolo[1,5-c]pyrimidin-7-yl]pyrrolidine-2-carboxamide], for which, in test [2], the IC50 fell in the range of 10 to 100 nM.

With `Cc1nc2cc(NC(=O)C3CCC3)nc(-c3ccc(C)o3)n2n1` [Compound 10, N-[2-methyl-5-(5-methylfuran-2-yl)-[1,2,4]triazolo[1,5-c]pyrimidin-7-yl]cyclobutanecarboxamide], the IC50 in test [1] is 10 to 100 nM; in test [2], below 10 nM.

Consider `Cc1nc2c(Cl)c(N)nc(-c3ccc(C)o3)n2n1` [Compound 11, 8-chloro-2-methyl-5-(5-methylfuran-2-yl)-[1,2,4]triazolo[1,5-c]pyrimidin-7-amine], for which the IC50 in test [1] and in test [2] was below 10 nM each time.

Turning to `Cc1ccc(-c2nc(NC(=O)C3CC3)cc3nc(C(C)C)nn23)o1` [Compound 12, N-[5-(5-methylfuran-2-yl)-2-propan-2-yl-[1,2,4]triazolo[1,5-c]pyrimidin-7-yl]cyclopropanecarboxamide], the IC50 in test [1] and in test [2] was below 10 nM throughout.

Take `Cc1ccc(-c2nc(N)cc3nc(C(C)C)nn23)o1` [Compound 13, 5-(5-methylfuran-2-yl)-2-propan-2-yl-[1,2,4]triazolo[1,5-c]pyrimidin-7-amine]: the IC50 is 100 to 1000 nM in test [1] and below 10 nM in test [2].

On to `Cc1nc2cc(NC(=O)C3CNC3)nc(-c3ccc(C)o3)n2n1` [Compound 14, N-[2-methyl-5-(5-methylfuran-2-yl)-[1,2,4]triazolo[1,5-c]pyrimidin-7-yl]azetidine-3-carboxamide], for which the IC50 in test [1] is 10 to 100 nM; in test [2], below 10 nM.

On to `Cc1nc2c(Cl)c(NC(=O)C3CC3)nc(-c3ccc(C)o3)n2n1` [Compound 15, N-[8-chloro-2-methyl-5-(5-methylfuran-2-yl)-[1,2,4]triazolo[1,5-c]pyrimidin-7-yl]cyclopropanecarboxamide], for which the IC50 was 100 to 1000 nM in test [1] and below 10 nM in test [2].

In the case of `Cc1nc2c(Br)c(N)nc(-c3ccc(C)o3)n2n1` [Compound 16, 8-bromo-2-methyl-5-(5-methylfuran-2-yl)-[1,2,4]triazolo[1,5-c]pyrimidin-7-amine], the IC50 in test [1] and in test [2] was below 10 nM in each case.

In test [2], `Cc1nc2cc(NC(=O)[C@H]3CCCN3)nc(-c3ccc(C)o3)n2n1` [Compound 17, (2R)-N-[2-methyl-5-(5-methylfuran-2-yl)-[1,2,4]triazolo[1,5-c]pyrimidin-7-yl]pyrrolidine-2-carboxamide] registered an IC50 below 10 nM.

For `Cc1nc2cc(NC(=O)C3CN(C)C3)nc(-c3ccc(C)o3)n2n1` [Compound 18, 1-methyl-N-[2-methyl-5-(5-methylfuran-2-yl)-[1,2,4]triazolo[1,5-c]pyrimidin-7-yl]azetidine-3-carboxamide], the 50% inhibitory concentration (IC50) is 10 to 100 nM in test [1] and below 10 nM in test [2].

`Cc1nc2c(C)c(NC(=O)C3CC3)nc(-c3ccc(C)o3)n2n1` [Compound 19, N-[2,8-dimethyl-5-(5-methylfuran-2-yl)-[1,2,4]triazolo[1,5-c]pyrimidin-7-yl]cyclopropanecarboxamide]: the values for the IC50 in test [1] and in test [2] were 100 to 1000 nM and 10 to 100 nM, respectively.

As for `Cc1ccc(-c2nc(NC(=O)C3CC3)cc3nc(C(F)(F)F)nn23)o1` [Compound 20, N-[5-(5-methylfuran-2-yl)-2-(trifluoromethyl)-[1,2,4]triazolo[1,5-c]pyrimidin-7-yl]cyclopropanecarboxamide], the IC50 in test [1] and in test [2] was below 10 nM in each case.

For the molecule `Cc1ccc(-c2nc(N)cc3nc(C(F)(F)F)nn23)o1` [Compound 21, 5-(5-methylfuran-2-yl)-2-(trifluoromethyl)-[1,2,4]triazolo[1,5-c]pyrimidin-7-amine], the IC50 was 10 to 100 nM in test [1] and below 10 nM in test [2].

With `Cc1nc2c(C)c(N)nc(-c3ccc(C)o3)n2n1` [Compound 22, 2,8-dimethyl-5-(5-methylfuran-2-yl)-[1,2,4]triazolo[1,5-c]pyrimidin-7-amine], the IC50 in test [1] is 10 to 100 nM; in test [2], below 10 nM.

Molecule `Cc1nc2c(Br)c(NC(=O)C3CC3)nc(-c3ccco3)n2n1` [Compound 31, N-[8-bromo-5-(furan-2-yl)-2-methyl-[1,2,4]triazolo[1,5-c]pyrimidin-7-yl]cyclopropanecarboxamide] registered an IC50 in test [2] of 10 to 100 nM.

Consider `Cc1ccc(-c2nc(N)cn3ccnc23)o1` [Compound 191, 8-(5-methylfuran-2-yl)imidazo[1,2-a]pyrazin-6-amine], for which, in test [2], the IC50 lay in the range of 100 to 1000 nM.

In test [2], `CCOC(=O)c1cn2cc(NC(=O)C3CC3)nc(-c3ccc(C)o3)c2n1` [Compound 193, ethyl 6-(cyclopropanecarbonylamino)-8-(5-methylfuran-2-yl)imidazo[1,2-a]pyrazine-2-carboxylate] had an IC50 of 10 to 100 nM.

As to `Cc1ccc(-c2nc(NC(=O)C3CC3)cn3cc(C(=O)O)nc23)o1` [Compound 194, 6-(cyclopropanecarbonylamino)-8-(5-methylfuran-2-yl)imidazo[1,2-a]pyrazine-2-carboxylic acid], in test [2], the half-inhibitory concentration (IC50) is above 1000 nM.
